The assay relates to NCI-H1876 complex spheroid growth, % test/control. The assay is described as follows: Anticancer human tumor NCI-H1876 cell line growth inhibition [Asc].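 As to all read-outs here: compound exposure lasted 7 days starting three days after seeding.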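 As to viability, T/C: 100% = DMSO vehicle control wells.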 To be noted: for viability, T/C: stronger effect = lower value. As to the method:
Multicellular complex tumor spheroid response to apoptosis pathway targeting inhibitors Alrizomadlin, Pelcitoclax, and Dasminapant in combination with a variety of drugs and investigational agents in selected tumor cell lines
The MDM2 inhibitor alrizomadlin, the Bcl-2/Bcl-xL inhibitor pelcitoclax, and the IAPs inhibitor dasminapant were evaluated both individually and in combination with standard of care and investigational anticancer small molecules within a complex spheroid model of solid tumors. . Complex spheroids include a stromal component modeled by human endothelial cells (HUVEC) and fibroblasts modeled by human mesenchymal stem cells (MSCs). The concentration ranges selected for each drug and investigational agent were based upon clinically achievable concentrations if the clinical Cmax of the agent was known.
Compounds. The drugs and investigational agents: alrizomadlin (APG-115; NSC831270), pelcitoclax (APG-1252; NSC835773), dasminapant (APG-1387;NSC834197), TAK-243 (NSC785004), copanlisib (NSC809693), olaparib (NSC753686), talazoparib (NSC767125), cobimetinib (NSC 768068), eltanexor (KPT-8602, NSC 794443), abemaciclib (NSC 768073), sotorasib (NSC818433), adagrasib (NSC 831453), MRTX-1133 (NSC 836407), Iadademestat (ORY1001, NSC 806812), and RMC-4630 (NSC839698), were obtained from the NCI Developmental Therapeutics Program Chemical Repository. The FDA-approved anticancer drug set is available from the Developmental Therapeutics Program at https://dtp.cancer.gov/organization/dscb/obtaining/available plates.htm. […] The stock solutions were prepared in dimethyl sulfoxide (DMSO, Sigma-Aldrich, St. Louis, MO, cat. D2650) at 800-fold the tested concentration and stored at -70 degrees C prior to their use. All drugs and investigational agents were tested over a range starting from a high concentration at or near the clinical Cmax and decreasing in half-log increments. If the clinical Cmax for an agent had not been determined, the highest concentration tested was 10 microM.
The patient-derived cancer (PDC) cell lines include five colon adenocarcinomas: 186277-243-T-J2-PDC, 616215-338-R-J1-PDC, 439559-082-T-J2-PDC, 463943-066-T-J2-PDC, and 519858-162-T-J1-PDC; three pancreatic carcinomas: 323965-272-R-J2-PDC, 521955-158-R6-J3-PDC, and 521955-158-R2-J5-PDC; two uterine sarcomas: 327498-152-R-J2-PDC and 993429-296-R-J1-PDC; two rhabdomyosarcomas: 755483-174-R-J1-PDC and 772245-204-R-J1-PDC; two soft tissue sarcomas: 126254-015-R-J1-PDC and 494315-158-R-J1-PDC; two malignant fibrous histiocytomas: 317291-083-R-J1-PDC and 596521-263-R-J1-PDC; two breast carcinomas: 171881-019-R-J1-PDC and 885512-296-R-J2-PDC; and one ovarian carcinoma: 6556581-035-R-J-PDC were obtained from the NCI PDMR, (https://pdmr.cancer.gov). The established cell lines HSSY-2 synovial sarcoma (RRID:CVCL 8719), SYO-1 synovial sarcoma (RRID:CVCL_7146), MPNST malignant peripheral neural sheath tumor were obtained from the Sloan Kettering Institute. The following established cell lines were purchased from the American Type Culture Collection (ATCC, Manassas, VA), Sor the received from the NCI repository:, PANC-1 pancreatic carcinoma (CRL-1469, RRID:CVCL_0480), OVCAR-5 ovarian carcinoma (RRID:CVCL_1628), OVCAR-8 ovarian carcinoma (RRID:CVCL_1629), , MCF-7 breast carcinoma (CRL-12584, RRID:CVCL_0031), MDA-MB-231 breast carcinoma (CRL-12532, RRID:CVCL_0062), NCI-H1876 small cell lung carcinoma (CRL-5902, RRID:CVCL_1503), NCI-H510A small cell lung carcinoma (HTB-184, RRID:CVCL_1565), NCI-H1417 (CRL-5869, RRID:CVCL_1469), and NCI-H196 small cell lung carcinoma (CRL-5823, RRID:CVCL_1509). Dr. Peter Houghton (Greehey Children's Cancer Research Institute, University of Texas Health Science Center, San Antonio, TX) provided Rh-18 rhabdomyosarcoma (RRID:CVCL_1659). Pooled donor human umbilical vein endothelial cells (HUVEC, Lonza, cat. CC-2519) and human mesenchymal stem cells (hMSC, Lonza, cat. PT-2501) were purchased from Lonza (Walkersville, MD).
Cell Culture. […]

Structures are written as SMILES. Values joined by “and” are separate entries in the source; they are usually repeats but may differ in a detail not shown here. Equal values may be shown once.

As usually defined, the IC50 is the point on the concentration scale where inhibition reaches its midpoint. The term viability, T/C denotes the ratio of treated to control.

On to `C=CC(=O)N1CCN(c2nc(=O)n(-c3c(C)ccnc3C(C)C)c3nc(-c4c(O)cccc4F)c(F)cc23)C(C)C1` (stereo unspecified) + CCN1C(C(=O)NC23CCC(C(=O)O)(CC2)CC3)C(c2cccc(Cl)c2F)C2(C(=O)Nc3cc(Cl)ccc32)C12CCCCC2, for which the half-inhibitory concentration (IC50) is, setting by setting: (curve of first compound, second compound 0.00949 µM) above 10 µM; (curve of first compound, second compound 0.03 µM) above 10 µM; (curve of first compound, second compound 0.0949 µM) above 10 µM; (curve of first compound, second compound 0.3 µM) above 10 µM; (curve of first compound, second compound 0.949 µM) above 10 µM; (curve of first compound, second compound 3 µM) above 10 µM. The viability, T/C reads like this: (second compound 0.00949 µM, first compound 0.0316 µM) 93.5%; (second compound 0.00949 µM, first compound 0.1 µM) 90.4%; (second compound 0.00949 µM, first compound 0.316 µM) 101%; (second compound 0.00949 µM, first compound 1 µM) 108%; (second compound 0.00949 µM, first compound 3.16 µM) 118%; (second compound 0.00949 µM, first compound 10 µM) 106%. For the same molecule, the viability, T/C was 98.2% (second compound 0.03 µM, first compound 0.0316 µM); 101% (second compound 0.03 µM, first compound 0.1 µM); 104% (second compound 0.03 µM, first compound 0.316 µM); 103% (second compound 0.03 µM, first compound 1 µM); 110% (second compound 0.03 µM, first compound 3.16 µM); 107% (second compound 0.03 µM, first compound 10 µM). The viability, T/C (second compound 0.0949 µM, first compound 0.0316 µM) is 96.8%; the viability, T/C (second compound 0.0949 µM, first compound 0.1 µM) was 93.4%; the viability, T/C (second compound 0.0949 µM, first compound 0.316 µM) was 107%; the viability, T/C (second compound 0.0949 µM, first compound 1 µM) was 106%; the viability, T/C (second compound 0.0949 µM, first compound 3.16 µM) is 117%; the viability, T/C (second compound 0.0949 µM, first compound 10 µM) is 107%. Further, the viability, T/C by setting is: (second compound 0.3 µM, first compound 0.0316 µM) 103%; (second compound 0.3 µM, first compound 0.1 µM) 106%; (second compound 0.3 µM, first compound 0.316 µM) 115%; (second compound 0.3 µM, first compound 1 µM) 114%; (second compound 0.3 µM, first compound 3.16 µM) 114%; (second compound 0.3 µM, first compound 10 µM) 109%. Moreover, the viability, T/C runs as follows: (second compound 0.949 µM, first compound 0.0316 µM) 118%; (second compound 0.949 µM, first compound 0.1 µM) 115%; (second compound 0.949 µM, first compound 0.316 µM) 104%; (second compound 0.949 µM, first compound 1 µM) 114%; (second compound 0.949 µM, first compound 3.16 µM) 118%; (second compound 0.949 µM, first compound 10 µM) 112%. For the same molecule, the viability, T/C by setting is: (second compound 3 µM, first compound 0.0316 µM) 112%; (second compound 3 µM, first compound 0.1 µM) 99.6%; (second compound 3 µM, first compound 0.316 µM) 96.7%; (second compound 3 µM, first compound 1 µM) 109%; (second compound 3 µM, first compound 3.16 µM) 114%; (second compound 3 µM, first compound 10 µM) 107%.

Regarding `CCN1CCN(Cc2ccc(Nc3ncc(F)c(-c4cc(F)c5nc(C)n(C(C)C)c5c4)n3)nc2)CC1`, the viability, T/C (compound 0.00316 µM) is 101% and 103% and 104%; the viability, T/C (compound 0.01 µM) is 94.1% and 101% and 89.8%; the viability, T/C (compound 0.0316 µM) is 97.1% and 101% and 106%; the viability, T/C (compound 0.1 µM) is 105% and 100% and 106%; the viability, T/C (compound 0.316 µM) was 114% (2×) and 120%; the viability, T/C (compound 1 µM) was 126% and 132% and 131%. Besides, where the note is “curve of compound”, the 50% inhibitory concentration (IC50) was above 1 µM.

For `NC(=O)C(=Cn1cnc(-c2cc(C(F)(F)F)cc(C(F)(F)F)c2)n1)c1cncnc1`, the viability, T/C was 104% and 99.4% (2×) (compound 0.000949 µM); 90.3% and 91.5% and 85.9% (compound 0.003 µM); 93.9% and 92.5% and 90.8% (compound 0.00949 µM); 92.4% and 98.6% and 97.9% (compound 0.03 µM); 97.5% and 80.5% and 104% (compound 0.0949 µM); 74.8% and 77.2% and 94.8% (compound 0.3 µM). Further, the concentration for half-maximal inhibition (IC50) (curve of compound) was above 0.3 µM.

(Values after PubChem BioAssay AID1963441 (Molecular Pharmacology Branch, DTP, NCI, 2024).)
